Key:
[1] = biological target: T1, PTPN2 (HiBIT-PTPN2 in 293T.109 cells) (Homo sapiens, UniProt P17706); assay: HiBiT Degradation 293T.109 PTPN2 (Nano-Glo HiBiT Lytic Assay); format: cell-based; conditions: 24.0 hours
T1 construct: expressed in transfected cells; host or cells: 293T.109 (293T WT from ATCC)
T1 sequence (P17706 1-415): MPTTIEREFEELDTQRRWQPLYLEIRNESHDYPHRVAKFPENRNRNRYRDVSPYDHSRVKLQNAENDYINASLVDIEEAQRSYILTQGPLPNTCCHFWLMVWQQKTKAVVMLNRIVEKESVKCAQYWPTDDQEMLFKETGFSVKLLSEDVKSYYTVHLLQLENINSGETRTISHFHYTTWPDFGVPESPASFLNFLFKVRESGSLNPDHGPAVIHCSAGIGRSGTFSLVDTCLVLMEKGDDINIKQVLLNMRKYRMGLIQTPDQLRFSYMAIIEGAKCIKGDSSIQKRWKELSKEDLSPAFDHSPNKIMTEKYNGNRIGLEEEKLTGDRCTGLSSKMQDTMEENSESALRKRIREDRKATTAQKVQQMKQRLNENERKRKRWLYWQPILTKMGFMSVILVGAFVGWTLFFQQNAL
In short: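 Degradation read-out: lytic HiBiT luminescence after 24 h treatment (37 °C, 5% CO2) of 5000 293T cells per well expressing HiBiT-fused PTPN2 from an N-terminal tag. Dosing was 11 points, half-log steps down from 10 μM, in duplicate; vehicle-treated and no-reagent wells served as controls.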

PTPN2 (B16F10.4 cells) = biological target: T2, PTPN2 (B16F10.4 cells) (Mus musculus, UniProt Q06180); assay: HiBiT Degradation B16F10.4 PTPN2; format: cell-based; conditions: 24.0 hours
T2 construct: HiBiT; host or cells: B16F10.4
T2 sequence (Q06180 1-406): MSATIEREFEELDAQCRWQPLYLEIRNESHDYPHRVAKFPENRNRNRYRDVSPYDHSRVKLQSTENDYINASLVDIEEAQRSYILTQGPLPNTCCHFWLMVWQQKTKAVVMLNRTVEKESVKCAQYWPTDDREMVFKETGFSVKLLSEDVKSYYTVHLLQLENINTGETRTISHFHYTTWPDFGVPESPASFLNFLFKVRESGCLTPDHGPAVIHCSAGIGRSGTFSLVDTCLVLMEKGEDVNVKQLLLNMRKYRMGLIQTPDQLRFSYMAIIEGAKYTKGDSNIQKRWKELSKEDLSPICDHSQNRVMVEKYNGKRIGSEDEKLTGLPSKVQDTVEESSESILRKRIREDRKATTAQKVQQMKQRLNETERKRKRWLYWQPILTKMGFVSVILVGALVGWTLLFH

Row | Structure (SMILES) | DC50 [1] | DC50 (PTPN2 (B16F10.4 cells))
1 | CN(C(=O)C1CCN(C(=O)CNc2cccc3c2CN(C2CCC(=O)NC2=O)C3=O)CC1)c1cccc(CS(=O)(=O)N2CC[C@H](Nc3cccc(-c4sc(C(=O)O)c(OCC(=O)O)c4Cl)c3)CC2(C)C)c1 (stereo partly drawn) [Example 67, 3-(carboxymethoxy)-4-chloro-5-(3-(((4S)-1-((3-(1-((2-(2,6-dioxopiperidin-3-yl)-1-oxoisoindolin-4-yl)glycyl)-N-methylpiperidine-4-carboxamido)benzyl)sulfonyl)-2,2-dimethylpiperidin-4-yl)amino)phenyl)thiophene-2-carboxylic acid] | 200 to 1000 nM | ≥ 1000 nM
2 | CC1(C)C[C@@H](Nc2cccc(-c3sc(C(=O)O)c(OCC(=O)O)c3Cl)c2)CCN1S(=O)(=O)Cc1ccc(F)c(NC(=O)[C@H]2[C@@H]3CN(C(=O)CNc4cccc5c4CN(C4CCC(=O)NC4=O)C5=O)C[C@@H]32)c1 (stereo partly drawn) [Example 110, 3-(carboxymethoxy)-4-chloro-5-(3-(((4S)-1-((3-((1R,5S,6r)-3-((2-(2,6-dioxopiperidin-3-yl)-1-oxoisoindolin-4-yl)glycyl)-3-azabicyclo[3.1.0]hexane-6-carboxamido)-4-fluorobenzyl)sulfonyl)-2,2-dimethylpiperidin-4-yl)amino)phenyl)thiophene-2-carboxylic acid] | 50 to 200 nM | 200 to 1000 nM
3 | Cn1nc(C2CCC(=O)NC2=O)c2ccc(CCC(=O)Nc3cccc(CS(=O)(=O)N4CCC(Nc5cccc(-c6sc(C(=O)O)c(OCC(=O)O)c6Cl)c5)CC4)c3)cc21 (centres unmarked) [Example 157, 3-(carboxymethoxy)-4-chloro-5-[3-[[1-[[3-[3-[3-(2,6-dioxo-3-piperidyl)-1-methyl-indazol-6-yl]propanoylamino]phenyl]methylsulfonyl]-4-piperidyl]amino]phenyl]thiophene-2-carboxylic acid] | 200 to 1000 nM | 200 to 1000 nM
4 | CC1(C)C[C@@H](Nc2cccc(-c3sc(C(=O)O)c(OCC(=O)O)c3Cl)c2)CCN1S(=O)(=O)Cc1cccc(NC(=O)N2CCC(Cc3ccc4c5c(cccc35)C(=O)N4C3CCC(=O)NC3=O)CC2)c1 (stereo partly drawn) [Example 158, 3-(carboxymethoxy)-4-chloro-5-(3-(((4S)-1-((3-(4-((1-(2,6-dioxopiperidin-3-yl)-2-oxo-1,2-dihydrobenzo[cd]indol-6-yl)methyl)piperidine-1-carboxamido)benzyl)sulfonyl)-2,2-dimethylpiperidin-4-yl)amino)phenyl)thiophene-2-carboxylic acid] | 50 to 200 nM | < 50 nM
5 | CC1(C)C[C@@H](Nc2cccc(-c3sc(C(=O)O)c(OCC(=O)O)c3Cl)c2)CCN1S(=O)(=O)Cc1cccc(NC(=O)OC2CCN(C(=O)CNc3cccc4c3CN(C3CCC(=O)NC3=O)C4=O)CC2)c1 (some centres unmarked) [Example 85] | 50 to 200 nM | 200 to 1000 nM
6 | Cn1c(=O)n(C2CCC(=O)NC2=O)c2ccc(OC3CCN(C(=O)Nc4cccc(CS(=O)(=O)N5CC[C@H](Nc6cccc(-c7sc(C(=O)O)c(OCC(=O)O)c7Cl)c6)CC5(C)C)c4)CC3)cc21 (some centres unmarked) [Example 118] | 200 to 1000 nM | 50 to 200 nM
7 | Cn1c(=O)n(C2CCC(=O)NC2=O)c2ccc([C@H]3CCN(C(=O)Nc4cccc(CS(=O)(=O)N5CC[C@H](Nc6cccc(-c7sc(C(=O)O)c(OCC(=O)O)c7Cl)c6)CC5(C)C)c4)CC3(F)F)cc21 (stereo partly drawn) [Example 168, 3-(carboxymethoxy)-4-chloro-5-(3-(((4S)-1-((3-((4R)-4-(1-(2,6-dioxopiperidin-3-yl)-3-methyl-2-oxo-2,3-dihydro-1H-benzo[d]imidazol-5-yl)-3,3-difluoropiperidine-1-carboxamido)benzyl)sulfonyl)-2,2-dimethylpiperidin-4-yl)amino)phenyl)thiophene-2-carboxylic acid] | 50 to 200 nM | < 50 nM
8 | CC1(C)C[C@@H](Nc2cccc(-c3sc(C(=O)O)c(OCC(=O)O)c3Cl)c2)CCN1S(=O)(=O)Cc1cccc(NC(=O)C2CCN(c3ccc4c5c(cccc35)N(C3CCC(=O)NC3=O)C4=O)CC2)c1 (some centres unmarked) [Example 216] | < 50 nM | 50 to 200 nM
9 | Cc1cc2cc(C3CCN(C(=O)Nc4cccc(CS(=O)(=O)N5CC[C@H](Nc6cccc(-c7sc(C(=O)O)c(OCC(=O)O)c7Cl)c6)CC5(C)C)c4)CC3)ccc2n1C1CCC(=O)NC1=O (stereo partly drawn) [Example 208, 3-(carboxymethoxy)-4-chloro-5-[3-[[(4S)-1-[[3-[[4-[1-(2,6-dioxo-3-piperidyl)-2-methyl-indol-5-yl]piperidine-1-carbonyl]amino]phenyl]methylsulfonyl]-2,2-dimethyl-4-piperidyl]amino]phenyl]thiophene-2-carboxylic acid] | 200 to 1000 nM | 200 to 1000 nM

Next, values leading:

Row | DC50 [1] | DC50 (PTPN2 (B16F10.4 cells)) | Structure (SMILES)
10 | 200 to 1000 nM | ≥ 1000 nM | CC1(C)C[C@@H](Nc2cccc(-c3sc(C(=O)O)c(OCC(=O)O)c3Cl)c2)CCN1S(=O)(=O)Cc1cccc(NC(=O)N2CCC(n3c(=O)n(C4CCC(=O)NC4=O)c4ccccc43)CC2)c1 (stereo partly drawn) [Example 124, 3-(carboxymethoxy)-4-chloro-5-[3-[[(4S)-1-[[3-[[4-[3-(2,6-dioxo-3-piperidyl)-2-oxo-benzimidazol-1-yl]piperidine-1-carbonyl]amino]phenyl]methylsulfonyl]-2,2-dimethyl-4-piperidyl]amino]phenyl]thiophene-2-carboxylic acid]
11 | 200 to 1000 nM | ≥ 1000 nM | CC1(C)C[C@@H](Nc2cccc(-c3sc(C(=O)O)c(OCC(=O)O)c3Cl)c2)CCN1S(=O)(=O)Cc1cccc(NC(=O)CCCNC(=O)CNc2cccc3c2CN(C2CCC(=O)NC2=O)C3=O)c1 (stereo partly drawn) [Example 28, 3-(carboxymethoxy)-4-chloro-5-(3-(((4S)-1-((3-(4-(2-((2-(2,6-dioxopiperidin-3-yl)-1-oxoisoindolin-4-yl)amino)acetamido)butanamido)benzyl)sulfonyl)-2,2-dimethylpiperidin-4-yl)amino)phenyl)thiophene-2-carboxylic acid]
12 | 50 to 200 nM | < 50 nM | Cn1c(=O)n(C2CCC(=O)NC2=O)c2ccc(C3CCN(C(=O)Nc4cccc(CS(=O)(=O)N5CC[C@H](Nc6cccc(-c7sc(C(=O)O)c(OCC(=O)O)c7Cl)c6)CC5(C)C)c4F)CC3)cc21 (stereo partly drawn) [Example 125, 3-(carboxymethoxy)-4-chloro-5-[3-[[(4S)-1-[[3-[[4-[1-(2,6-dioxo-3-piperidyl)-3-methyl-2-oxo-benzimidazol-5-yl]piperidine-1-carbonyl]amino]-2-fluoro-phenyl]methylsulfonyl]-2,2-dimethyl-4-piperidyl]amino]phenyl]thiophene-2-carboxylic acid]
13 | < 50 nM | 200 to 1000 nM | CC1(C)C[C@@H](Nc2cccc(-c3sc(C(=O)O)c(OCC(=O)O)c3Cl)c2)CCN1S(=O)(=O)Cc1cccc(NC(=O)CCN2CCC(Nc3cccc4c3CN(C3CCC(=O)NC3=O)C4=O)CC2)c1 (stereo partly drawn) [Example 46, 3-(carboxymethoxy)-4-chloro-5-(3-(((4S)-1-((3-(3-(4-((2-(2,6-dioxopiperidin-3-yl)-1-oxoisoindolin-4-yl)amino)piperidin-1-yl)propanamido)benzyl)sulfonyl)-2,2-dimethylpiperidin-4-yl)amino)phenyl)thiophene-2-carboxylic acid]
14 | 200 to 1000 nM | 200 to 1000 nM | CC1(C)C[C@@H](Nc2cccc(-c3sc(C(=O)O)c(OCC(=O)O)c3Cl)c2)CCN1S(=O)(=O)Cc1cccc(NC(=O)CN2CCC(n3c(=O)n(C4CCC(=O)NC4=O)c4ccccc43)CC2)c1 (stereo partly drawn) [Example 130, 3-(carboxymethoxy)-4-chloro-5-[3-[[(4S)-1-[[3-[[2-[4-[3-(2,6-dioxo-3-piperidyl)-2-oxo-benzimidazol-1-yl]-1-piperidyl]acetyl]amino]phenyl]methylsulfonyl]-2,2-dimethyl-4-piperidyl]amino]phenyl]thiophene-2-carboxylic acid]
15 | < 50 nM | < 50 nM | CC1(C)C[C@@H](Nc2cccc(-c3sc(C(=O)O)c(OCC(=O)O)c3Cl)c2)CCN1S(=O)(=O)Cc1cccc(NC(=O)N2CCC(c3ccc4c5c(cccc35)C(=O)N4[C@@H]3CCC(=O)NC3=O)CC2)c1 (single isomer, unassigned) [Example 187a]
16 | 200 to 1000 nM | ≥ 1000 nM | CC1(C)C[C@H](Nc2cccc(-c3sc(C(=O)O)c(OCC(=O)O)c3Cl)c2)CCN1S(=O)(=O)Cc1ccc(F)c(NC(=O)[C@H]2[C@@H]3CN(C(=O)CNc4cccc5c4CN(C4CCC(=O)NC4=O)C5=O)C[C@@H]32)c1 (stereo partly drawn) [Example 111, 3-(carboxymethoxy)-4-chloro-5-(3-(((4R)-1-((3-((1R,5S,6r)-3-((2-(2,6-dioxopiperidin-3-yl)-1-oxoisoindolin-4-yl)glycyl)-3-azabicyclo[3.1.0]hexane-6-carboxamido)-4-fluorobenzyl)sulfonyl)-2,2-dimethylpiperidin-4-yl)amino)phenyl)thiophene-2-carboxylic acid]
